In patent publication US12017976B1, “1-(4-carbonoimidoylphenoxy)-3-{4-[(e)-(phenylimino)methyl]phenoxy }propan-2-ol as an eco-friendly insecticidal agent against Spodoptera littoralis (boisd.)” (KING FAISAL UNIVERSITY, priority 2024, dated 2024):
In brackets after ≈: the same amount, converted by molar mass.

Key:
[1] = test system: Spodoptera littoralis larvae (2nd and 4th instar); assay: Insecticidal leaf dip bioassay on larvae of the laboratory strain of cotton leafworm
Method: Five concentrations (200, 100, 50, 25, 12.5 ppm) were designed for this synthetic compound and the reference fenoxycarb's compound as the dynamic ingredients based on ppm via diluting the commercial formulation.
In this experiment, the synthetic compound was tested for its insecticidal bioactivity using the industry-standard leaf dip bioassay techniques. […] Until usage, the stocks were kept in a refrigerator. The target substance test results were noted & the concentrations needed to destroy 50% (LC50) of S. littoralis larvae were calculated. The target compound was employed in five different concentrations, & 0.1% Tween 80 was employed as a surfactant. Castor bean leaf discs (nine centimeters in diameter) were dipped in the concentration under test for ten seconds, then fed to 2th & 4th larvae, which were roughly the same size and housed in glass jars (five pound). Each action carried out 3 times with ten larvae each. The mortality equalized via Abbott's formula. […] The mortality results of larval insect were estimated through employing probit analysis through a statistics (LDP-line) equation which estimate the LC50 values with 95% fiducially limits of lower, upper confidence limit and slope.

[2] = test system: aquatic insects; settings: highly toxic / very highly toxic classification; cited from earlier work

| Compound | Toxicity index %, 2nd instar larvae ([1]; 2nd instar larvae, 72 hours, fenoxycarb's LC50 / compound's LC50) [%] | Toxicity index %, 4th instar larvae ([1]; 4th instar larvae, 72 hours, fenoxycarb's LC50 / compound's LC50) [%] | LC50 ([1]; Spodoptera littoralis, in Gossypium hirsutum, foliar, read-out: LC50 against Spodoptera littoralis) [µg/mL] | LC50 for aquatic insects [2] [µg/mL] |
| --- | --- | --- | --- | --- |
| CCOC(=O)NCCOc1ccc(Oc2ccccc2)cc1 [fenoxycarb] | 100 | 100 | 5.94 (≈ 19.7 µM) | – |
| CCc1ccc(C(=O)NN(C(=O)c2cc(C)cc(C)c2)C(C)(C)C)cc1 [tebufenozide] | – | – | – | 100 to 1000 |
